Where “and” joins values, the source holds several entries; their conditions need not be identical. Equal entries are not always repeated.
Assays:
[1] = tested on: GBS wild type strain COH1; assay: GBS survival with porphyrin supplementation, with or without pulsed 450 nm light (Study 1, no incubation); format: cell-based, Group B Streptococcus (GBS)
Method: GBS wild type strain COH1 was added to 3 mL of Todd Hewitt broth and grown aerobically overnight at 37° C. From the overnight cultures, 500 uL of GBS was added to fresh Todd Hewitt broth and grown logarithmically at 37° C. until reaching a concentration of 10^8 CFU/mL. The culture was then centrifuged at 1300 rpm for three minutes, the supernatant was removed and discarded, and 1 mL of fresh Todd Hewitt broth was added. Serial dilutions of NaCl were made to obtain a suspension of GBS diluted to a concentration of 1×10^4 CFU/mL. The GBS were streaked onto Todd Hewitt agar plates both with and without the addition of diluted porphyrins (different concentrations of PPIX or CP III).
(§1) The lighted substrate was set to operate in 33% DF pulsed mode and driven with a constant current source. The average irradiance was 3 mW/cm^2. The pulse duration was 10 microseconds with an off time of 20 microseconds, and a pulse repetition rate of 33 kHz. The plates subject to light treatment were irradiated three times at […] with a radiant exposure of 7.56 J/cm^2 during each irradiation session (i.e., each irradiation session was 42 minutes with an incubation period there between of 30 minutes).
(§2) After irradiation protocols were completed, the plates were placed upside down in the anaerobic chamber and incubated at 37° C. for 24 hours. The plates were photographed, colonies counted and statistics of percent survival recorded.

[2] = tested on: GBS wild type strain COH1; assay: GBS survival with porphyrin supplementation and 30 min incubation (optional wash), with or without pulsed 450 nm light (Study 2); format: cell-based, Group B Streptococcus (GBS)
Method: GBS wild type strain COH1 was added to 3 mL of Todd Hewitt broth and grown aerobically overnight at 37° C. From the overnight cultures, 500 uL of GBS was added to fresh Todd Hewitt broth and grown logarithmically at 37° C. until reaching a concentration of 10^8 CFU/mL. The culture was then centrifuged at 1300 rpm for three minutes, the supernatant was removed and discarded, and 1 mL of fresh Todd Hewitt broth was added.
The culture was then split into three Eppendorf tubes—a first tube for GBS and second and third tubes for GBS with diluted porphyrins used for incubation. Diluted porphyrins (PPIX or CP III) were added into the second and third tubes and incubated for 30 minutes at 37° C. The third tube was then washed three times with phosphate-buffered saline (PBS) and centrifuged at 1300 rpm for three minutes, and the supernatant was removed and discarded. Serial dilutions of NaCl were made to obtain a suspension of GBS diluted to a concentration of 1×10^4 CFU/mL. The GBS were streaked onto Todd Hewitt agar plates.
as §1, with “therebetween” for “there between”
as §2

[3] = 0.05 mg/mL porphyrin + pulsed 450 nm light, 7.56 J/cm^2, 3 mW/cm^2, 33% DF, three irradiations
[4] = 0.2 mg/mL (incubated) + pulsed 450 nm light 7.56 J/cm^2, three irradiations
[5] = 0.2 mg/mL (incubated), without any irradiation

Compound | percent GBS survival compared to the control ([1]; 0.02 mg/mL porphyrin, without any irradiation) | percent GBS survival compared to the control [1, 3] | percent GBS survival compared to the control ([1]; 0.05 mg/mL porphyrin, without any irradiation) | percent GBS survival compared to the control ([2]; 0.05 mg/mL (incubated and washed) + pulsed 450 nm light 7.56 J/cm^2, three irradiations) | percent GBS survival compared to the control ([2]; 0.05 mg/mL (incubated and washed), no irradiation) | percent GBS survival compared to the control ([2]; 0.05 mg/mL (incubated) + pulsed 450 nm light 7.56 J/cm^2, three irradiations) | percent GBS survival compared to the control ([2]; 0.05 mg/mL (incubated), without any irradiation) | percent GBS survival compared to the control [2, 4] | percent GBS survival compared to the control [2, 5] | percent GBS survival compared to the control ([1]; 0.02 mg/mL porphyrin + pulsed 450 nm light, 7.56 J/cm^2, 3 mW/cm^2, 33% DF, three irradiations) | percent GBS survival compared to the control ([2]; 0.02 mg/mL (incubated and washed) + pulsed 450 nm light 7.56 J/cm^2, three irradiations) | percent GBS survival compared to the control ([2]; 0.02 mg/mL (incubated and washed), no irradiation) | percent GBS survival compared to the control ([2]; 0.02 mg/mL (incubated) + pulsed 450 nm light 7.56 J/cm^2, three irradiations) | percent GBS survival compared to the control ([2]; 0.02 mg/mL (incubated), without any irradiation) | percent GBS survival compared to the control ([2]; 0.08 mg/mL (incubated and washed) + pulsed 450 nm light 7.56 J/cm^2, three irradiations) | percent GBS survival compared to the control ([2]; 0.08 mg/mL (incubated and washed), no irradiation) | percent GBS survival compared to the control ([2]; 0.08 mg/mL (incubated) + pulsed 450 nm light 7.56 J/cm^2, three irradiations) | percent GBS survival compared to the control ([2]; 0.08 mg/mL (incubated), without any irradiation) | percent GBS survival compared to the control ([2]; 0.2 mg/mL (incubated and washed) + pulsed 450 nm light 7.56 J/cm^2, three irradiations) | percent GBS survival compared to the control ([2]; 0.2 mg/mL (incubated and washed), no irradiation)
coproporphyrin III [CP III] | approximately 74% | 0% | approximately 84% | 0% | approximately 72% | 0% | approximately 90% | 0% | approximately 82% | – | – | – | – | – | – | – | – | – | – | –
C=CC1=C(C)c2cc3[nH]c(cc4nc(cc5[nH]c(cc1n2)c(C)c5CCC(=O)O)C(CCC(=O)O)=C4C)c(C)c3C=C [PPIX, protoporphyrin IX] | – | 3% and 0% | – | – | – | – | – | approximately 50% | approximately 80% | 0% | approximately 18% | approximately 92% | approximately 68% | approximately 92% | approximately 40% | approximately 76% | approximately 52% | approximately 84% | approximately 10% | approximately 78%
